The values that follow come from ChEMBL document CHEMBL3877331, “Affinity-Based Selectivity Profiling of an In-Class Selective Competitive Inhibitor of Acyl Protein Thioesterase 2” (ACS Med Chem Lett, 2017).

SMILES strings stand for the structures. Activity calls are given as the source filed them. The calls are words filed in the database; no cut-off is given here.

One may read the Ki as the dissociation constant of the complex between target and ligand, obtained from inhibition or displacement. Lower therefore signals tighter binding. By IC50 is commonly meant the concentration needed to halve the response being measured.

The target in test [1] is T1, Acyl-protein thioesterase 2 (Homo sapiens, UniProt O95372). Nature of the test: Competitive inhibition of HEK293T cells-derived His-tagged APT2 expressed in Escherichia coli BL21(DE3) preincubated for 30 mins followed by substrate addition by resorufin dye based acetate hydrolysis assay. More on the design: species or system HEK-293T.
Test [2] has as its target FAD synthase (Homo sapiens) (UniProt Q8NFF5). Briefly: Binding affinity to FAD1 in HEK293T cells at 50 uM incubated for 1 hr by mass spectrometry analysis relative to azide-PEG3-biotin. To be noted: HEK-293T. Format: cell-based.
Test [3] addresses T2, Ribosyldihydronicotinamide dehydrogenase [quinone] (Homo sapiens) (UniProt P16083).
T2 sequence (whole entry): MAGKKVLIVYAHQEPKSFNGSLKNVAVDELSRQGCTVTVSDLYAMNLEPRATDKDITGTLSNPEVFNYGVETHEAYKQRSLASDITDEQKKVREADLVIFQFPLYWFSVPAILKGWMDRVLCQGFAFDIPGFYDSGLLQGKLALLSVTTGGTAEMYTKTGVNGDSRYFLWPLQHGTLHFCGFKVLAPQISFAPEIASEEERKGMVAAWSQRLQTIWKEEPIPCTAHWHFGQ
Briefly: Binding affinity to NQO2 in HEK293T cells at 50 uM incubated for 1 hr by mass spectrometry analysis relative to azide-PEG3-biotin. To be noted: HEK-293T. Format: cell-based.

Test [4] deals with Deoxycytidine kinase (Homo sapiens) (UniProt P27707). Nature of the test: Binding affinity to DCK in HEK293T cells at 50 uM incubated for 1 hr by mass spectrometry analysis relative to azide-PEG3-biotin. Format: cell-based. The conditions noted are these: HEK-293T.
The target of test [5] is T3, Pyridoxal kinase (Homo sapiens) (UniProt O00764).
T3 sequence (whole entry): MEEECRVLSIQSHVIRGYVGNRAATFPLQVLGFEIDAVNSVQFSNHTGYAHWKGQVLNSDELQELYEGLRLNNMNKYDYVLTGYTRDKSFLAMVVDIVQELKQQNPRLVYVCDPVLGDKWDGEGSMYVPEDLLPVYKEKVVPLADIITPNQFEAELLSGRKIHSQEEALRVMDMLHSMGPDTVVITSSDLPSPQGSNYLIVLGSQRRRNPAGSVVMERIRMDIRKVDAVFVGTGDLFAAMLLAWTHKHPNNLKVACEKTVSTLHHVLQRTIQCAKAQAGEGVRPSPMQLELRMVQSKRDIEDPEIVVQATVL
Briefly: Binding affinity to PDXK in HEK293T cells at 50 uM incubated for 1 hr by mass spectrometry analysis relative to o-ML349-biotin. Format: cell-based. The conditions noted are these: HEK-293T.

Test [6] deals with MDCK. Briefly: Binding affinity to APT2 in MDCK cells at 50 uM incubated for 1 hr by mass spectrometry analysis. Type of test: cell-based. The conditions noted are these: Canis lupus familiaris.
Test [7] deals with T3, Pyridoxal kinase (Homo sapiens). Briefly: Binding affinity to PDXK in HEK293T cells at 50 uM incubated for 1 hr by mass spectrometry analysis relative to azide-PEG3-biotin. Format: cell-based. The conditions noted are these: HEK-293T.
Test [8] has as its target T1, Acyl-protein thioesterase 2. Briefly: Inhibition of fluorescein-labeled ML349 binding to HEK293T cells-derived His-tagged APT2 expressed in Escherichia coli BL21(DE3) after 30 mins by fluorescence polarization assay. More on the design: species or system HEK-293T.
The target of test [9] is Adenosine kinase (Homo sapiens) (UniProt P55263). Nature of the test: Binding affinity to ADK in HEK293T cells at 50 uM incubated for 1 hr by mass spectrometry analysis relative to azide-PEG3-biotin. Format: cell-based. To be noted: HEK-293T.
Test [10] addresses T1, Acyl-protein thioesterase 2. Nature of the test: Binding affinity to APT2 in HEK293T cells at 50 uM incubated for 1 hr by mass spectrometry analysis relative to o-ML349-biotin. Format: cell-based. To be noted: HEK-293T.
In test [11] the target is T4, Pyridoxal kinase (Homo sapiens, UniProt O00764).
T4 sequence (O00764 whole entry): T3 sequence (whole entry)
Briefly: Inhibition of fluorescein-labeled ML349 binding to HEK293T cells-derived His-tagged PDXK expressed in Escherichia coli BL21(DE3) after 30 mins by fluorescence polarization assay. More on the design: species or system HEK-293T. In general terms: In fluorescence polarisation assays a small probe gives low polarisation when free and higher when bound to something large.

For test [12], the target named is T1, Acyl-protein thioesterase 2. Nature of the test: Binding affinity to APT2 in HEK293T cells at 50 uM preincubated for 1 hr followed by FP-TAMRA labeling by in-gel fluorescence assay. Format: cell-based. To be noted: HEK-293T.
Test [13] addresses T2, Ribosyldihydronicotinamide dehydrogenase [quinone] (Homo sapiens). Nature of the test: Binding affinity to NQO2 in HEK293T cells at 50 uM incubated for 1 hr by mass spectrometry analysis relative to o-ML349-biotin. Type of test: cell-based. To be noted: HEK-293T.
In test [14] the target is T3, Pyridoxal kinase (Homo sapiens). Briefly: Binding affinity to HEK293T cells-derived His-tagged PDXK expressed in Escherichia coli BL21(DE3) assessed as stoichiometric complex formation at 10 uM after 5 mins by electrospray ionization native mass spectrometry. To be noted: HEK-293T.
For test [15], the target named is T2, Ribosyldihydronicotinamide dehydrogenase [quinone] (Homo sapiens). Nature of the test: Binding affinity to HEK293T cells-derived His-tagged NQO2 expressed in Escherichia coli BL21(DE3) assessed as stoichiometric complex formation at 10 uM after 5 mins by electrospray ionization native mass spectrometry. To be noted: HEK-293T.
Test [16] has as its target FAD synthase (Homo sapiens) (UniProt Q8NFF5). Nature of the test: Binding affinity to FAD1 in HEK293T cells at 50 uM incubated for 1 hr by mass spectrometry analysis relative to o-ML349-biotin. Format: cell-based. The conditions noted are these: HEK-293T.
Test [17] addresses Adenosine kinase (Homo sapiens) (UniProt P55263). Nature of the test: Binding affinity to ADK in HEK293T cells at 50 uM incubated for 1 hr by mass spectrometry analysis relative to o-ML349-biotin. Format: cell-based. The conditions noted are these: HEK-293T.
In test [18] the target is Deoxycytidine kinase (Homo sapiens) (UniProt P27707). Nature of the test: Binding affinity to DCK in HEK293T cells at 50 uM incubated for 1 hr by mass spectrometry analysis relative to o-ML349-biotin. To be noted: HEK-293T. Format: cell-based.
In test [19] the target is T1, Acyl-protein thioesterase 2. Briefly: Binding affinity to APT2 in HEK293T cells at 50 uM incubated for 1 hr by mass spectrometry analysis relative to azide-PEG3-biotin. Format: cell-based. The conditions noted are these: HEK-293T.
The target is the same in test [20]. Briefly: Binding affinity to HEK293T cells-derived His-tagged APT2 expressed in Escherichia coli BL21(DE3) assessed as stoichiometric complex formation at 10 uM after 5 mins by electrospray ionization native mass spectrometry. To be noted: HEK-293T.

T1 sequence (O95372 whole entry): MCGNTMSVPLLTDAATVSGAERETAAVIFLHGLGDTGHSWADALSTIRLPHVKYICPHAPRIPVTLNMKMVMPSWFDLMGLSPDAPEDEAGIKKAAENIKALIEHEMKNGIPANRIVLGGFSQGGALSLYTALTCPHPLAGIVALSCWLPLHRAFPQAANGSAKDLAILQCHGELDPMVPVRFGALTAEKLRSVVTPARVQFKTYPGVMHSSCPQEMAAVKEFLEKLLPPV
Chain of FAD synthase (Homo sapiens) (Q8NFF5 whole entry): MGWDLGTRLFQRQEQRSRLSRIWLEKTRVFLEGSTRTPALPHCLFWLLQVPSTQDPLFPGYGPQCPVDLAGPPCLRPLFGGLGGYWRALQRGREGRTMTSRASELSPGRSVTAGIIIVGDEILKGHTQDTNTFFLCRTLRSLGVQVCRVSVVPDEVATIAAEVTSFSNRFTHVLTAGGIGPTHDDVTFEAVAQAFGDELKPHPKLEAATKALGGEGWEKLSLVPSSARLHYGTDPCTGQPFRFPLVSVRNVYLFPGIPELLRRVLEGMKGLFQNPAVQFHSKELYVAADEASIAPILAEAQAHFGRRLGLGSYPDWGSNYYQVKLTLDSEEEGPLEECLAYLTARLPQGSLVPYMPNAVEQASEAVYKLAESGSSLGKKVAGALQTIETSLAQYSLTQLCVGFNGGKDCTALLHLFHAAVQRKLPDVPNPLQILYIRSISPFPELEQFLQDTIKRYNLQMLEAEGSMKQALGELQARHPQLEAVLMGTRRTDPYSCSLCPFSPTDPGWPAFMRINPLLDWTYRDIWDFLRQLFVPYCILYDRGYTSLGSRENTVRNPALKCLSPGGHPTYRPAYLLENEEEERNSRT
Chain of Adenosine kinase (Homo sapiens) (P55263 2-362 limits assumed): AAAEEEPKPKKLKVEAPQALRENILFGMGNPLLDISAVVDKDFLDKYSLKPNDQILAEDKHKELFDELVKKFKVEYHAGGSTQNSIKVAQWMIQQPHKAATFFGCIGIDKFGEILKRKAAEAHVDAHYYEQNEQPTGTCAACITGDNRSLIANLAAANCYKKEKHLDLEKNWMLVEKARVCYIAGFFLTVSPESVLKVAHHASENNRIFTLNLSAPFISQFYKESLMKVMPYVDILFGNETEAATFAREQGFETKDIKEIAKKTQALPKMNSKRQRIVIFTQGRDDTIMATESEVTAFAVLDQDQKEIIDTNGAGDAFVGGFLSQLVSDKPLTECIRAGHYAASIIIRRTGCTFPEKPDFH
Chain of Deoxycytidine kinase (Homo sapiens) (P27707 whole entry, looked up): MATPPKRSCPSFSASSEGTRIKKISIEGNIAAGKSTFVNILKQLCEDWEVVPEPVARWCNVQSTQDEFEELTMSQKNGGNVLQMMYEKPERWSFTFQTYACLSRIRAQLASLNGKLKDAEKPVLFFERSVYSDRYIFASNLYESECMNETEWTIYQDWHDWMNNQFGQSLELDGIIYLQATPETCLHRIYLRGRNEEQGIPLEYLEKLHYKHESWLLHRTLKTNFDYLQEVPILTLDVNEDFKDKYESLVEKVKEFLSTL

Consider `O=C(CCCC[C@@H]1SC[C@@H]2NC(=O)N[C@@H]21)NCCOCCOCCOCCn1cc(COc2ccccc2N2CCN(C(=O)c3cc4c(s3)-c3ccccc3S(=O)(=O)C4)CC2)nn1`, for which, in test [1], the Ki is over 10 µM. The fold change (FC) in test [2] and in [3] was 3 each time.

As for `O=C(CCCC[C@@H]1SC[C@@H]2NC(=O)N[C@@H]21)NCCOCCOCCOCCn1cc(COc2ccc(N3CCN(C(=O)c4cc5c(s4)-c4ccccc4S(=O)(=O)C5)CC3)cc2)nn1`, the fold change (FC) in [4], in [5], in test [7], in [9], in test [10] and in [13] was over 5 throughout. In addition, the fold change (FC) in test [2], in test [16], in [17], in test [18], in [3] and in [19] was over 5 in each case. Also, the result in [6], in test [12], in [14], in test [15] and in [20] was Active. This compound also yielded a Ki in test [1] of 1.1 µM. For the same compound, the IC50 in test [8] and in [11] was over 10 µM in each case.

As to `COc1ccc(N2CCN(C(=O)c3cc4c(s3)-c3ccccc3S(=O)(=O)C4)CC2)cc1`, the IC50 in [11] is over 10 µM. In addition, the outcome in [14], in test [15] and in [20] was Active.

Regarding `[N-]=[N+]=NCCOCCOCCOCCNC(=O)CCCC[C@@H]1SC[C@@H]2NC(=O)N[C@@H]21`, the inhibition constant Ki in test [1] is over 10 µM.
